{
  "source": "PubChem BioAssay AID330",
  "about": "(DTP/NCI, 2004)",
  "tested_on": "P388 leukemia ip, CD2F1 mice, survival T/C",
  "assay": "NCI In Vivo Anticancer Drug Screen. Data for tumor model P388 Leukemia (intraperitoneal) in CD2F1 (CDF1) mice",
  "conditions": "endpoint: median survival time, higher = longer survival",
  "procedure,_shortened": "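Mice carrying the transplanted tumor received test compound or vehicle. Survival was recorded in each group, and the value is the treated-group measurement divided by that of the vehicle-treated control group.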",
  "note": "Several values for one entry are separate records, joined by “and”; a condition that tells them apart may be missing. Equal entries are not always repeated. Toxic doses and inconclusive results are not listed.",
  "data": [
    {"smiles": "COc1cc2c3c(c1O)-c1c(cccc1OC)CC3N(C)CC2", "note": "(stereo unspecified)", "values": [
      {"measurement": "T/C", "setting": "dose: 12.5 mg/kg/injection, schedule: Q04DX003 (ip), vehicle: saline with Tween-80", "value": "90 % of control"},
      {"measurement": "T/C", "setting": "dose: 25.0 mg/kg/injection, schedule: Q04DX003 (ip), vehicle: saline with Tween-80", "value": "100 % of control and 88 % of control"}
    ]},
    {"smiles": "O=C1/C(=C/N2CCN(c3ccccc3)CC2)Cc2c(Cl)cccc21", "values": [
      {"measurement": "T/C", "setting": "dose: 100.0 mg/kg/injection, schedule: Q04DX002 (ip), vehicle: Klucel (hydroxypropylcellulose) (HPC)", "value": "105 % of control"},
      {"measurement": "T/C", "setting": "dose: 200.0 mg/kg/injection, schedule: Q04DX002 (ip), vehicle: Klucel (hydroxypropylcellulose) (HPC)", "value": "114 % of control"},
      {"measurement": "T/C", "setting": "dose: 400.0 mg/kg/injection, schedule: Q04DX002 (ip), vehicle: Klucel (hydroxypropylcellulose) (HPC)", "value": "102 % of control"}
    ]},
    {"smiles": "Cc1cc(Br)c(O)c(C(=NCC(C)N=C(c2ccccc2)c2cc(C)cc(Br)c2O)c2ccccc2)c1", "note": "(stereo unspecified)", "values": [
      {"measurement": "T/C", "setting": "dose: 25.0 mg/kg/injection, schedule: Q01DX005 (ip), vehicle: Klucel (hydroxypropylcellulose) (HPC)", "value": "100 % of control"},
      {"measurement": "T/C", "setting": "dose: 50.0 mg/kg/injection, schedule: Q01DX005 (ip), vehicle: Klucel (hydroxypropylcellulose) (HPC)", "value": "96 % of control"},
      {"measurement": "T/C", "setting": "dose: 100.0 mg/kg/injection, schedule: Q01DX005 (ip), vehicle: Klucel (hydroxypropylcellulose) (HPC)", "value": "100 % of control"},
      {"measurement": "T/C", "setting": "dose: 200.0 mg/kg/injection, schedule: Q01DX005 (ip), vehicle: Klucel (hydroxypropylcellulose) (HPC)", "value": "96 % of control"}
    ]},
    {"smiles": "CC1([CH2][Hg][I])OCCOC1[CH2][Hg][I]", "note": "(stereo unspecified)", "values": [
      {"measurement": "T/C", "setting": "dose: 25.0 mg/kg/injection, schedule: Q01DX009 (ip), vehicle: saline", "value": "105 % of control"}
    ]},
    {"smiles": "CNC(=S)SSC(=S)NCCNC(=S)SSC(=S)NC", "values": [
      {"measurement": "T/C", "setting": "dose: 50.0 mg/kg/injection, schedule: Q01DX005 (ip), vehicle: saline with Tween-80", "value": "99 % of control"},
      {"measurement": "T/C", "setting": "dose: 100.0 mg/kg/injection, schedule: Q01DX005 (ip), vehicle: saline with Tween-80", "value": "106 % of control"},
      {"measurement": "T/C", "setting": "dose: 200.0 mg/kg/injection, schedule: Q01DX005 (ip), vehicle: saline with Tween-80", "value": "101 % of control"}
    ]},
    {"smiles": "COc1ccc(/C=N\\NC(=O)C(=O)N/N=C\\c2ccc(OC)c(OC)c2)cc1OC", "values": [
      {"measurement": "T/C", "setting": "dose: 12.5 mg/kg/injection, schedule: Q01DX009 (ip), vehicle: Klucel (hydroxypropylcellulose) (HPC)", "value": "93 % of control"},
      {"measurement": "T/C", "setting": "dose: 25.0 mg/kg/injection, schedule: Q01DX009 (ip), vehicle: Klucel (hydroxypropylcellulose) (HPC)", "value": "93 % of control"},
      {"measurement": "T/C", "setting": "dose: 50.0 mg/kg/injection, schedule: Q01DX009 (ip), vehicle: Klucel (hydroxypropylcellulose) (HPC)", "value": "86 % of control and 88 % of control"}
    ]}
  ]
}
